Source: publication PMC2992884 (Cell metabolism, 2010)

Biological target: T1, ACS-3 (Caenorhabditis elegans, UniProt O44560)
T1 sequence (O44560 1-653): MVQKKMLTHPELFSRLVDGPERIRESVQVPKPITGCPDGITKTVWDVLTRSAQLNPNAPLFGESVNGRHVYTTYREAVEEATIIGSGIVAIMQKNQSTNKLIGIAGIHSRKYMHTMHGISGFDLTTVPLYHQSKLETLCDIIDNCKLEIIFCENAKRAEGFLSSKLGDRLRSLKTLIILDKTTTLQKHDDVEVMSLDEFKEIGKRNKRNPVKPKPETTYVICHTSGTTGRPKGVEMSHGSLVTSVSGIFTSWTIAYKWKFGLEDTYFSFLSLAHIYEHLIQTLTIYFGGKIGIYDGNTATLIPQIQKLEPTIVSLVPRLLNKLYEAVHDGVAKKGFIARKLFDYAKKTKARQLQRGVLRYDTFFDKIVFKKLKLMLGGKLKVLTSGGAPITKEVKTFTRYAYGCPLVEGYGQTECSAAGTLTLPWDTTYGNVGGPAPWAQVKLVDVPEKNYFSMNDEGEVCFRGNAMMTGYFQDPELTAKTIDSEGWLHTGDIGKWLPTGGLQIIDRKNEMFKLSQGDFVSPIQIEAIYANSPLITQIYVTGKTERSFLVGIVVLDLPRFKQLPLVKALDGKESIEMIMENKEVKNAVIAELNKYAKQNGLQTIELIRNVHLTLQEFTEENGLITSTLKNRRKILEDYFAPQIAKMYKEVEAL
Assay: acyl-CoA oxidase/catalase coupled colorimetric assay, […] nm
Assay type: biochemical
Conditions: with free long-chain fatty acid (18-carbon preferred)

CC(C)(COP(=O)(O)OP(=O)(O)OC[C@H]1O[C@@H](n2cnc3c(N)ncnc32)[C@H](O)[C@@H]1OP(=O)(O)O)[C@@H](O)C(=O)NCCC(=O)NCCS [CoA]
acyl-CoA oxidase/catalase coupled colorimetric assay, 550 nm: ACS activity generates acyl-CoA species from free fatty acid and CoA
